From PubChem BioAssay AID328 (DTP/NCI, 2004)
Toxic doses and inconclusive results are not listed. How the source made its calls: active means survival T/C of 150% or more; inactive means T/C below 125% in these data.

System: BDF1 mice, P388 leukemia ip, median survival T/C
Experiment: NCI In Vivo Anticancer Drug Screen. Data for tumor model P388 Leukemia (intraperitoneal) in B6D2F1 (BDF1) mice
Details: endpoint: median survival time, higher = longer survival
Summary of the method: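 Survival ratio, drug arm over vehicle arm, in mice with a transplanted tumour.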

[1] = dose: 100.0 mg/kg/injection, schedule: Q04DX003 (ip), vehicle: saline with Tween-80
[2] = dose: 200.0 mg/kg/injection, schedule: Q04DX003 (ip), vehicle: saline with Tween-80
[3] = dose: 400.0 mg/kg/injection, schedule: Q04DX003 (ip), vehicle: saline with Tween-80

Measured: T/C

CSc1ncnc2c1ncn2C1OC(CO)C(O)C1O (stereo not given)
inactive: dose: 4.0 mg/kg/injection, schedule: Q01DX010 (ip), vehicle: saline 113 % of control | dose: 8.0 mg/kg/injection, schedule: Q01DX010 (ip), vehicle: saline 122 % of control | dose: 32.0 mg/kg/injection, schedule: Q01DX010 (ip), vehicle: saline 118 % of control

COC1(c2ccc(Br)cc2)OC1(C)C (stereo not given)
inactive: dose: 6.25 mg/kg/injection, schedule: Q04DX003 (ip), vehicle: water 101 % of control | dose: 12.5 mg/kg/injection, schedule: Q04DX003 (ip), vehicle: water 94 % of control | dose: 25.0 mg/kg/injection, schedule: Q01DX009 (ip), vehicle: water 110 % of control | dose: 25.0 mg/kg/injection, schedule: Q04DX003 (ip), vehicle: water 101 % of control | dose: 50.0 mg/kg/injection, schedule: Q01DX009 (ip), vehicle: water 112 % of control | dose: 50.0 mg/kg/injection, schedule: Q04DX003 (ip), vehicle: water 97 % of control | dose: 100.0 mg/kg/injection, schedule: Q01DX009 (ip), vehicle: water 100 % of control | dose: 100.0 mg/kg/injection, schedule: Q04DX003 (ip), vehicle: water 86 % of control | dose: 200.0 mg/kg/injection, schedule: Q01DX009 (ip), vehicle: water 110 % of control | dose: 400.0 mg/kg/injection, schedule: Q01DX009 (ip), vehicle: water 124 % of control

C[C@]12CC[C@@H](O)C[C@H]1CC[C@@H]1[C@@H]2CC[C@]2(C)C(=O)CC[C@@H]12
inactive: dose: 100.0 mg/kg/injection, schedule: Q01DX009 (ip), vehicle: saline with Tween-80 90 % of control | [1] 105 % of control | dose: 200.0 mg/kg/injection, schedule: Q01DX009 (ip), vehicle: saline with Tween-80 90 % of control | [2] 100 % of control | dose: 400.0 mg/kg/injection, schedule: Q01DX009 (ip), vehicle: saline with Tween-80 90 % of control | [3] 100 % of control

CCOC(=O)C1=C(C)NC(=O)NC1c1ccc(N=Cc2cc(Br)ccc2O)cc1 (stereo not given)
inactive: dose: 75.0 mg/kg/injection, schedule: Q01DX001 (ip), vehicle: saline with Tween-80 95 % of control | dose: 150.0 mg/kg/injection, schedule: Q01DX001 (ip), vehicle: saline with Tween-80 90 % of control | dose: 300.0 mg/kg/injection, schedule: Q01DX001 (ip), vehicle: saline with Tween-80 90 % of control

OCC12COCN1COC2
inactive: dose: 50.0 mg/kg/injection, schedule: Q01DX009 (ip), vehicle: saline 104 % of control | dose: 100.0 mg/kg/injection, schedule: Q01DX009 (ip), vehicle: saline 104 % of control

CC(=O)O[C@]1(C(C)=O)CC[C@H]2[C@@H]3C=C(Cl)C4=CC(=O)[C@@H]5C[C@@H]5[C@]4(C)[C@H]3CC[C@@]21C
inactive: dose: 100.0 mg/kg/injection, schedule: Q01DX009 (ip), vehicle: Klucel (hydroxypropylcellulose) (HPC) 95 % of control | dose: 100.0 mg/kg/injection, schedule: Q04DX003 (ip), vehicle: Klucel (hydroxypropylcellulose) (HPC) 104 % of control | dose: 200.0 mg/kg/injection, schedule: Q01DX009 (ip), vehicle: Klucel (hydroxypropylcellulose) (HPC) 91 % of control | dose: 200.0 mg/kg/injection, schedule: Q04DX003 (ip), vehicle: Klucel (hydroxypropylcellulose) (HPC) 108 % of control | dose: 400.0 mg/kg/injection, schedule: Q04DX003 (ip), vehicle: Klucel (hydroxypropylcellulose) (HPC) 108 % of control

OC(O)C(F)(F)F
inactive: dose: 15.0 mg/kg/injection, schedule: Q04DX003 (ip), vehicle: saline with Tween-80 100 % of control | dose: 30.0 mg/kg/injection, schedule: Q04DX003 (ip), vehicle: saline with Tween-80 100 % of control | dose: 60.0 mg/kg/injection, schedule: Q04DX003 (ip), vehicle: saline with Tween-80 95 % of control | [1] 104 % of control | [2] 113 % of control | [3] 104 % of control

COC1=CC(=O)C(Cl)=C(OC)C1=O
inactive: dose: 0.78 mg/kg/injection, schedule: Q01DX009 (ip), vehicle: saline 113 % of control | dose: 1.56 mg/kg/injection, schedule: Q01DX009 (ip), vehicle: saline 113 % of control | dose: 3.13 mg/kg/injection, schedule: Q01DX009 (ip), vehicle: saline with Tween-80 110 % of control | dose: 3.13 mg/kg/injection, schedule: Q01DX009 (ip), vehicle: saline 104 % of control

CC(=O)[O][Hg][c]1cc[c]([Hg][O]C(C)=O)s1
inactive: dose: 3.0 mg/kg/injection, schedule: Q01DX009 (ip), vehicle: Klucel (hydroxypropylcellulose) (HPC) 100 % of control | dose: 3.0 mg/kg/injection, schedule: Q04DX003 (ip), vehicle: Klucel (hydroxypropylcellulose) (HPC) 91 % of control | dose: 6.0 mg/kg/injection, schedule: Q01DX009 (ip), vehicle: Klucel (hydroxypropylcellulose) (HPC) 100 % of control | dose: 6.0 mg/kg/injection, schedule: Q04DX003 (ip), vehicle: Klucel (hydroxypropylcellulose) (HPC) 100 % of control | dose: 12.0 mg/kg/injection, schedule: Q01DX009 (ip), vehicle: Klucel (hydroxypropylcellulose) (HPC) 100 % of control | dose: 12.0 mg/kg/injection, schedule: Q04DX003 (ip), vehicle: Klucel (hydroxypropylcellulose) (HPC) 100 % of control
